Assay results as given in PubChem BioAssay (NCI).
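Interpolation was linear, between the two tested concentrations surrounding the appropriate level; five concentrations were tested over 48 hours in 96-well plates. At the GI50, growth is halved. Definition used: TGI = concentration required for complete inhibition of growth.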

How the values were obtained:
Test in all cases: NCI-60 cell line screen, 48 h
SK-OV-3 ovarian = system: SK-OV-3 ovarian
OVCAR-8 ovarian = system: OVCAR-8 ovarian
NCI-H23 lung = system: NCI-H23 lung
SR leukemia = system: SR leukemia
RXF 393 renal = system: RXF 393 renal
HCT-15 colon = system: HCT-15 colon
HOP-62 NSCLC = system: HOP-62 NSCLC
MALME-3M melanoma = system: MALME-3M melanoma
BT-549 breast = system: BT-549 breast
CCRF-CEM leukemia = system: CCRF-CEM leukemia

| Structure (SMILES) | TGI (SK-OV-3 ovarian) [µM] | TGI (OVCAR-8 ovarian) [µM] | TGI (NCI-H23 lung) [µM] | TGI (SR leukemia) [µM] | TGI (RXF 393 renal) [µM] | TGI (HCT-15 colon) [µM] | TGI (HOP-62 NSCLC) [µM] | TGI (MALME-3M melanoma) [µM] | TGI (BT-549 breast) [µM] | GI50 (SK-OV-3 ovarian) [µM] | GI50 (OVCAR-8 ovarian) [µM] | GI50 (CCRF-CEM leukemia) [µM] | TGI (CCRF-CEM leukemia) [µM] | GI50 (NCI-H23 lung) [µM] | GI50 (SR leukemia) [µM] | GI50 (RXF 393 renal) [µM] | GI50 (HCT-15 colon) [µM] | GI50 (HOP-62 NSCLC) [µM] | GI50 (MALME-3M melanoma) [µM] | GI50 (BT-549 breast) [µM] |
| --- | --- | --- | --- | --- | --- | --- | --- | --- | --- | --- | --- | --- | --- | --- | --- | --- | --- | --- | --- | --- |
| Cc1nc([N+](=O)[O-])cn1-c1nc2ccccn2c1[N+](=O)[O-] | > 100 | > 100 | > 100 | > 100 | 44.5 | > 100 | > 100 | > 100 | > 100 |  |  |  |  |  |  |  |  |  |  |  |
| O=c1oc2ccc(I)cc2c(=O)n1-c1ccc(Br)cc1F | 2.97 | 11.8 | 3.99 | > 34.1 | 4.39 | 7.89 | 6.65 | 2.55 | 2.67 | 0.614 | 0.821 | 1.93 | 10.4 | 0.658 | 0.605 | 1.02 | 1.28 | 1.83 | 0.462 | 0.525 |
| COC(COC(N)=O)C1=C(N2CC2)C(=O)C(C)=C(N2CC2)C1=O (stereo unspecified) | 1.8 | 0.24 | 0.0907 | 2.19 | 0.256 | 0.762 | 0.227 | 0.301 | 0.304 |  |  |  | 24.6 |  |  |  |  |  |  |  |
| O=c1c2ccccc2sc2c(NCCCNCCO)nc3ccccc3c12 | 7.31 | 4.46 | 7.55 | 4.55 | 3.52 | 3.52 | 2.82 | 3.3 | 11.1 | 2.14 | 1.97 | 1.59 | 3.57 | 2.01 | 1.6 | 1.46 | 1.57 | 1.34 | 1.58 | 2.81 |
| O=C1N[C@@H]2[C@@H](O)[C@@H](O)[C@H](O)C[C@H]2c2cc3c(c(O)c21)OCCO3 | 4.03 | 3.21 | 0.915 | 27.4 | 1.11 | 1.8 | 1.32 | 0.731 | 1.25 | 0.496 | 0.287 | 0.0737 | 1.83 | 0.238 | 0.245 | 0.264 | 0.27 | 0.282 | 0.209 | 0.301 |
| CCOC(=O)C1=CCCC[C@H]1S(=O)(=O)Nc1ccc(F)cc1Cl | > 100 | > 100 | > 100 | > 100 | 61.9 | > 100 | > 100 | 85.2 | 61 | 47.6 | 27.9 | 21.4 | 84.9 | 26.6 | 23.9 | 13.2 | 20.3 | 25.5 | 24.4 | 19.6 |
| Cc1ccc(C)c(N2C(=O)C(=O)C(c3nc4ccccc4s3)/C(=N/N)C2=O)c1 (stereo unspecified) | > 100 | > 100 | > 100 | > 100 | > 100 | > 100 | > 100 | > 100 |  |  |  |  | > 100 |  |  |  |  |  |  |  |
| O=C1NC(=C(Cl)Cl)/C(=N/S(=O)(=O)N2CCCCC2)N1 | 28.8 | 4.6 | 5 | 3.89 | 3.39 | 3.91 | 9.07 | 3.49 | 5.62 | 15.4 | 2.1 | 2.19 | 4.92 | 2.2 | 1.5 | 1.84 | 1.82 | 2.92 | 1.82 | 2.33 |
| COc1ccc2c(c1)C(=O)c1c-2n(CCCN(C)C)c(=O)c2ccccc12 | 3.14 | 11.3 | 1.31 | 11.3 | 2.34 | 3.95 | 11.2 | 2.06 | 3.11 | 0.382 | 0.186 | 0.077 | 0.629 | 0.318 |  | 0.53 | 0.25 | 0.433 | 0.483 | 0.521 |
| O=C(O)c1cc(-c2ccc3cc4c(cc3c2)OCO4)nc2ccccc12 | > 100 | > 100 | > 100 | 88.9 | > 100 | > 100 | > 100 | > 100 | > 100 |  |  |  | 35.4 |  |  |  |  |  |  |  |
| C=C(C)[C@H]1CC[C@@]2(C)C(C1)[C@H](C)CC[C@@H]2O (stereo partly specified) | > 100 | > 100 | > 100 | > 100 | > 100 | > 100 | > 100 | > 100 |  |  |  |  | > 100 |  |  |  |  |  |  |  |
